Data published in publication PMC12147183, “Lacritin cleavage-potentiated targeting of iron - respiratory reciprocity promotes bacterial death” (The Journal of Biological Chemistry, 2025).
Peptide text beside a SMILES is read from it.

Assays:
[1] = Surface plasmon resonance on chip-supported Gram-positive model membrane; assay type: binding; details: highest N-104 concentration, PC:PG Gram-positive model membrane
[2] = test system: P. aeruginosa PA14; experiment: N-104 sub-MIC generational resistance assay; assay type: cell-based, Pseudomonas aeruginosa; details: PA14 treated at subminimal inhibitory and minimal inhibitory concentrations, n = 2
Protocol: Supplementary Fig. 2. Thirty generations of PA14 fail to develop stable N-104 resistance together with biological replicates related to Fig. 2. A, Schematic of the N-104 sub-minimal inhibitory concentration (‘sub-MIC’) N-104 resistant assay. […] . This process was repeated through 30 generations. B, Generational fold change of N-104 MIC over 30 generations. The original sub-MIC N-104 concentration was 2 µM, for which there was no initial sub-MIC change ([mean], n = 2, *p<0.05; ns, not significant [Friedman ANOVA with Dunn's multiple comparisons test]). C, Biological replicates of the N-104 sub-MIC resistant assay. Scale bar is 2 mm. […] Scale bar is 2 mm.

[3] = target: thrombin (F2) (Homo sapiens, UniProt P00734); experiment: Affinity pulldown of human tears on peptide columns; assay type: binding; details: pooled human basal tears, 300 mOsm/l, 0.5 M KCl eluant, anti-F2 immunodetection
Protocol: Studies in this work abide by the Declaration of Helsinki principles. As per UVA IRB protocol 18,592, consented normal human volunteers were subjected to 0.5% proparacaine anesthesia of the eye to minimize reflex tearing. Human basal tears were then wicked for 5 min onto filter paper-like Schirmer strips. Those that had wicked a distance of at least 12 mm were subjected to 4 °C elution with 10 mM Na2HPO4, 1.8 mM KH2PO4, 2.7 mM KCl, 137 mM NaCl (pH 7.2) for a final total pooled tear volume of 170 μl. The pool was diluted five-fold in 10 mM Na2HPO4, 1.8 mM KH2PO4, 2.7 mM KCl, and 137 mM NaCl (pH 7.2) with protease inhibitors and subjected to end-over-end mixing with a 100 μl precolumn of Pierce Agarose followed by equal division by protein concentration into each of 100 μl of N-104 or C-95 columns. The solution was mixed for 5 h at 4 °C. Columns were subjected to washing with 10 mM Na2HPO4, 1.8 mM KH2PO4, 2.7 mM KCl, and 137 mM NaCl (pH 7.2) containing the same protease inhibitors followed by elution using KCl (0.3, 0.5, and 1.0 M KCl) in the same buffer. The 0.5 M KCl eluate was submitted for mass spectrometric sequencing by UVA's Biomolecular Analysis Facility, as previously noted. The acquired data were analyzed by database searching using the Sequest search algorithm against UniProt H. sapiens. […]

[4] = test system: PA14 transcriptome; experiment: RNAseq of N-104 treated PA14; assay type: cell-based, Pseudomonas aeruginosa; details: 20 μM N-104 versus N-80/C-25, 45 min at 35 °C, 5 × 10^8 cfu/ml
Protocol: For RNA extraction and sequencing of P. aeruginosa, we used diethylpyrocarbonate (DEPC) treated Eppendorf tubes (except for those used for synthetic peptide incubation). An aliquot of PA14 overnight culture grown for 3.5 to 4.0 h in LB broth to OD600 = 0.5 (5.0 × 10^8 cells) was gently pelleted (12,000g, 30 s), resuspended in 0.5 ml of 1 mM Na2HPO4, 0.18 mM KH2PO4, 0.27 mM KCl, 13.7 mM NaCl (pH 7.2) and incubated with five or 20 μM N-104, or 20 μM N-80/C-25 for 45 min at 35 °C or left untreated. After pelleting (12,000g, 5 min), cells were resuspended in 0.5 ml of TE buffer supplemented with 1 ml of RNA-protect Bacteria Reagent with 5 s of vortexing prior to incubation for 5 min at room temperature, pelleting (5000g, 10 min), and lysis initiated in 200 μl of 15 mg/ml lysozyme together with 20 μl of 2.5 mg/ml proteinase K, both in TE buffer. […] Library construction and sequencing were performed by UVA's Genome Analysis and Technology Core involving mRNA enrichment via the NEBNext rRNA Depletion Kit (Bacteria), and transcriptome sequencing on a Next Seq 500 Mid Output platform, with 150-bp paired-end reads. The range of raw reads for each sample varied from 8 to 10 million, thus ensuring an optimal depth of sequencing that was analyzed by UVA's Bioinformatics Core facility.

[5] = test system: P. aeruginosa PA14; experiment: SYTOX Orange PA14 membrane disruption assay; details: 25 μM peptide, PA14 10^7 cfu/ml, 1 h at 35 °C, 5 μM SYTOX Orange; positive control 70% ethanol
[6] = Surface plasmon resonance on chip-supported Gram-negative model membrane

CC(=O)N[C@@H](C)C(=O)N[C@@H](CCC(N)=O)C(=O)N[C@@H](CCCCN)C(=O)N[C@@H](CC(C)C)C(=O)N[C@@H](CC(C)C)C(=O)N[C@@H](CCCCN)C(=O)N[C@@H](CCCCN)C(=O)N[C@@H](Cc1ccccc1)C(=O)N[C@@H](CO)C(=O)N[C@@H](CC(C)C)C(=O)N[C@@H](CC(C)C)C(=O)N[C@@H](CCCCN)C(=O)N1CCC[C@H]1C(=O)N[C@@H](Cc1c[nH]c2ccccc12)C(=O)N[C@@H](C)C(=O)O [N-104] (Ac-AQKLLKKFSLLKPWA-OH)
SPR response after buffer wash versus baseline [1]: slightly below baseline | development of resistance over 30 successive generations [2]: No stable resistance was apparent | binding of tear thrombin to immobilized peptide [3]: binds thrombin | effect on PA14 respiratory gene expression [4]: promotes the expression of genes regulating anaerobic respiration while largely suppressing those involved in aerobic respiration | membrane disruption (SYTOX Orange uptake) [5]: no SYTOX Orange uptake was observed | membrane lysis or disruption concluded from SPR ([6]; 2-25 μM N-104, PC:PG:PE and PC:PG membranes): not membrane lytic nor substantially membrane disruptive | SPR response after buffer wash versus baseline ([6]; highest N-104 concentration (25 μM), flow 30 μl/min, 600 s, n = 4): remained slightly elevated over baseline
